Consider 15 molecules from ChEMBL document CHEMBL4364349, “In vitro screening for compounds from Hypericum longistylum with anti-pulmonary fibrosis activity” (Bioorg Med Chem Lett, 2019).

What is called inhibition is the share of the control response that was lost under treatment. Usually IC50 stands for the concentration that gives 50% inhibition.

What all share (format): cell-based
The nature of data set [1]: Cytotoxicity against mouse Mlg cells assessed as effect on cell viability up to 80 uM after 24 to 48 hrs by MTT assay. For orientation: Formazan colour is commonly taken as a measure of viable cells.
Data set [2] addresses Transforming growth factor beta-1 proprotein/Mothers against decapentaplegic homolog 3 (Mus musculus) (UniProt P04202+Q8BUN5). Briefly: Inhibition of TGF beta1/Smad3 signaling in mouse NIH/3T3 cells harboring CAGA promoter at 10 uM incubated for 18 hrs in presence of TGF-beta1 by luciferase reporter gene assay relative to control. (Reporter assays use an easily measured gene product as a stand-in for the process of interest.)

The target in data set [3] is Transforming growth factor beta-1 proprotein/Mothers against decapentaplegic homolog 3 (Mus musculus, UniProt P04202+Q8BUN5). Kind of data set: Inhibition of TGF beta1/Smad3 signaling in mouse NIH/3T3 cells harboring CAGA promoter incubated for 18 hrs in presence of TGF-beta1 by luciferase reporter gene assay.
Sequence of Transforming growth factor beta-1 proprotein/Mothers against decapentaplegic homolog 3 (P04202 279-390 limits assumed): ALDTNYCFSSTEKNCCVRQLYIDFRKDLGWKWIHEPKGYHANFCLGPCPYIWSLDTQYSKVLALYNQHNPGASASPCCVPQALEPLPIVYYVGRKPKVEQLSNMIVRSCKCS
Sequence of Transforming growth factor beta-1 proprotein/Mothers against decapentaplegic homolog 3 (Q8BUN5 2-425 limits assumed): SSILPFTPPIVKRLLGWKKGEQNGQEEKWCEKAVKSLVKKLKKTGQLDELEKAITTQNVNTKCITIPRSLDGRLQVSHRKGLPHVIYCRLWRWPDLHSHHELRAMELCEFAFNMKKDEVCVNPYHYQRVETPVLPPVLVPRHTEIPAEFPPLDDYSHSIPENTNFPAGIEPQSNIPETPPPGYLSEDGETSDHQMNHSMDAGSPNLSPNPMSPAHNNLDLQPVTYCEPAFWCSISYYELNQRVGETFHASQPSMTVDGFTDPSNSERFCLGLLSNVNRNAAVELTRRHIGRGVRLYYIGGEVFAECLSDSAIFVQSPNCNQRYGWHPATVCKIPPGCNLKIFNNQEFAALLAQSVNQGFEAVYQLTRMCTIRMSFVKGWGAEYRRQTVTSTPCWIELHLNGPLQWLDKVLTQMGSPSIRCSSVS

Sequence of Transforming growth factor beta-1 proprotein/Mothers against decapentaplegic homolog 3 (Mus musculus) (P04202 279-390 limits assumed): as the sequence (P04202 279-390 limits assumed) above
Sequence of Transforming growth factor beta-1 proprotein/Mothers against decapentaplegic homolog 3 (Mus musculus) (Q8BUN5 2-425 partner limits assumed): as the sequence (Q8BUN5 2-425 limits assumed) above

Regarding `C=C1CCC(=O)[C@]2(C)CC[C@@H](C(C)C)[C@@H]2C1O` (stereo not given in full), the Activity entry in data set [1] was “Non-Toxic”.
With `CC(C)[C@@H]1CC[C@@]2(C)[C@H](O)CCC(CO)=C[C@@H]12`, the Activity result in data set [1] is on record as “Non-Toxic”.
Same read-out and setting: for `C=C1CC[C@@H](O)[C@]2(C)CC[C@H](C(C)C)[C@@H](O)[C@H]12` the value was “Non-Toxic”.
As to `CC1(C)C[C@H]2[C@H]1CC[C@@]1(C)C[C@]2(O)CC[C@@H]1O`, the Activity entry in data set [1] was “Non-Toxic”. Further, the inhibition in data set [2] was found to be 67.9%. The IC50 in data set [3] was found to be 3670 nM.
As for `CC(C)[C@@H]1CC[C@@]2(C)[C@H](O)CCC(C=O)=C[C@H]12`, the Activity entry in data set [1] is “Non-Toxic”.
Take `CC(C)[C@H]1CC[C@@]2(C)[C@@H]1[C@@H]1O[C@]1(CO)CC[C@@H]2O` [SANICULAMOID B]: in data set [1], the Activity result is given as “Non-Toxic”.
As for `COc1ccc(C2CC(=O)c3c(O)cc(O)c(C)c3O2)cc1` (stereo not given), in data set [1], the Activity result is reported as “Non-Toxic”. The inhibition in data set [2] stood at 93.1%. Moreover, the half-inhibitory concentration (IC50) in data set [3] came out at 380 nM.
Consider `CO[C@@]12CC[C@@H](O)[C@@](C)(CC[C@@H]3[C@@H]1CC3(C)C)C2`, for which the Activity entry in data set [1] was “Non-Toxic”.
On the same count and under the same terms, for `CC(C)[C@@H]1CC[C@@]2(C)[C@H](O)CC[C@@]3(O)CO[C@@H]1[C@@H]32` the value was “Non-Toxic”.
Regarding `Cc1cccc(-c2[nH]c(C(C)(C)C)nc2-c2ccc3nccnc3c2)n1`, in data set [1], the Activity entry is “Toxic”. Moreover, in data set [3], the IC50 was determined as 70.5 nM.
Regarding `C=C1CC[C@@H](O)[C@]2(C)CC[C@@H](C(C)C)[C@H](O)[C@@H]12`, the Activity result in data set [1] is listed as “Non-Toxic”.
The same measure, in the same setting: the value for `C=C[C@](C)(O)CC[C@H]1C(=C)C[C@H](O)[C@H]2C(C)(C)CCC[C@]12C` was “Non-Toxic”.
Turning to `Cc1ccc(=O)n(-c2ccccc2)c1` [PIRFENIDONE], the IC50 in data set [3] came out at 1430 nM.
With `CC(C)[C@@H]1CC[C@@]2(C)C(=O)CCC(C=O)=C[C@@H]12`, the Activity entry in data set [1] is given as “Non-Toxic”.
Same read-out and setting: for `CC(=O)[C@@H]1CC[C@H]2[C@H]1[C@@H](C(C)C)CC[C@]2(C)O` the value was “Non-Toxic”.
